Consider 13 compounds from ChEMBL document CHEMBL1743201, “Casarett and Doull's Toxicology The Basic Science of Poisons, 7th edition” (2008).

In series [1] the target is Glutathione S-transferase Mu 3 (Homo sapiens, UniProt P21266). Briefly: Substrates for human cytosolic glutathione transferase GSTM3. It is filed as ADME.
The target in series [2] is T1, Glutathione S-transferase theta-1 (Homo sapiens, UniProt P30711).
T1 sequence (P30711 whole entry): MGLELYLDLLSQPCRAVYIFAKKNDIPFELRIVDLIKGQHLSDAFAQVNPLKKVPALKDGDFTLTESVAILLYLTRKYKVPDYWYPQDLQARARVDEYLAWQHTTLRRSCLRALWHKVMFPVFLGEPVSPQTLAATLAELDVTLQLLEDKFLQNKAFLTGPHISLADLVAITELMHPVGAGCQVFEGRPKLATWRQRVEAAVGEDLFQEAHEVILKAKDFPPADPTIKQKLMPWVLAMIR
Briefly: Substrates for human cytosolic glutathione transferase GSTT1. The format is ADME.

Series [3] has as its target T2, Nuclear receptor subfamily 1 group I member 3 (Homo sapiens, UniProt Q14994).
T2 sequence (Q14994 whole entry): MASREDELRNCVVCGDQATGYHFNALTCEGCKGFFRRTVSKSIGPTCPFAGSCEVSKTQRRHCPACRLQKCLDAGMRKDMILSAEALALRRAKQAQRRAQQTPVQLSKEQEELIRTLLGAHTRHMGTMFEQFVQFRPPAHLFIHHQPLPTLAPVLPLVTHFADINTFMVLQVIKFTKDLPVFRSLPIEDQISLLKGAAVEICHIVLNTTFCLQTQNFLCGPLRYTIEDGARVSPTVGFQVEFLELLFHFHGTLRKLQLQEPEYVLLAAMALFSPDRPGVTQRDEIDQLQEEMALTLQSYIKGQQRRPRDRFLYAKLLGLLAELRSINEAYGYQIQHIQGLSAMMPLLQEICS
Briefly: Constitutive androstane receptor inverse agonist.

Series [4] deals with T3, Nuclear receptor subfamily 1 group I member 3 (Mus musculus, UniProt O35627).
T3 sequence (O35627 whole entry): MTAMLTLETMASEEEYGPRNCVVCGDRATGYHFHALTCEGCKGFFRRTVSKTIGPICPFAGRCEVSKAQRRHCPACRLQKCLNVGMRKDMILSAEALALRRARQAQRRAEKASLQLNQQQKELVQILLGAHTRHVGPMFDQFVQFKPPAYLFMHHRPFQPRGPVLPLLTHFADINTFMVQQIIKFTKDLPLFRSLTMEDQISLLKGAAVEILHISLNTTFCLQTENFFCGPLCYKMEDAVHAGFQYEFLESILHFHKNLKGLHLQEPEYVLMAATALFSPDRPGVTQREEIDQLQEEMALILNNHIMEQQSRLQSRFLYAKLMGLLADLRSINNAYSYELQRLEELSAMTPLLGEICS
Briefly: Constitutive androstane receptor agonist.

Series [5] addresses T4, Aryl hydrocarbon receptor (Homo sapiens, UniProt P35869).
T4 sequence (P35869 whole entry): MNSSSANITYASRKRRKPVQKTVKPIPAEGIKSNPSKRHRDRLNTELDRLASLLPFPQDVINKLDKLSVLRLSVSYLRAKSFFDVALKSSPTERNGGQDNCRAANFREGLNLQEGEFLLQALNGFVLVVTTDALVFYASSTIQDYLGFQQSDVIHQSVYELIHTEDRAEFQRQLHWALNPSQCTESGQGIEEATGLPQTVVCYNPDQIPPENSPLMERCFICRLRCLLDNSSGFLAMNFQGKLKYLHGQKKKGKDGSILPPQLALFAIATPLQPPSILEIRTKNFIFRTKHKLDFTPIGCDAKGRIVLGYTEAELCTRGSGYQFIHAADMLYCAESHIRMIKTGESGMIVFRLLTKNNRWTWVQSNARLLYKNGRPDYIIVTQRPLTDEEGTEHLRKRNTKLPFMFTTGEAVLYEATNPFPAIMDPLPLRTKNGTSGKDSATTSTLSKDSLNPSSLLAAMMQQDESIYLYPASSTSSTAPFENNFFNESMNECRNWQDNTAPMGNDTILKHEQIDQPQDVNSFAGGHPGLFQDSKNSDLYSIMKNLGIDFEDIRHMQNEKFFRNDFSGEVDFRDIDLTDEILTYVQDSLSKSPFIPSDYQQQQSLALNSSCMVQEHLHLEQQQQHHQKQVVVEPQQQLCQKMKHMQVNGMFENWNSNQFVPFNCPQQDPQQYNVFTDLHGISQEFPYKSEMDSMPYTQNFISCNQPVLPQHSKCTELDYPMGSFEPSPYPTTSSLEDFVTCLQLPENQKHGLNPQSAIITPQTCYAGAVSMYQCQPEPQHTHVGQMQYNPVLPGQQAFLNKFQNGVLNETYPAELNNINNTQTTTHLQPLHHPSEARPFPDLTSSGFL
Briefly: Aryl hydrocarbon receptor agonist (species not specified).

The next series deals with T5, Cytochrome P450 1A2 (Homo sapiens, UniProt P05177).
T5 sequence (P05177 whole entry): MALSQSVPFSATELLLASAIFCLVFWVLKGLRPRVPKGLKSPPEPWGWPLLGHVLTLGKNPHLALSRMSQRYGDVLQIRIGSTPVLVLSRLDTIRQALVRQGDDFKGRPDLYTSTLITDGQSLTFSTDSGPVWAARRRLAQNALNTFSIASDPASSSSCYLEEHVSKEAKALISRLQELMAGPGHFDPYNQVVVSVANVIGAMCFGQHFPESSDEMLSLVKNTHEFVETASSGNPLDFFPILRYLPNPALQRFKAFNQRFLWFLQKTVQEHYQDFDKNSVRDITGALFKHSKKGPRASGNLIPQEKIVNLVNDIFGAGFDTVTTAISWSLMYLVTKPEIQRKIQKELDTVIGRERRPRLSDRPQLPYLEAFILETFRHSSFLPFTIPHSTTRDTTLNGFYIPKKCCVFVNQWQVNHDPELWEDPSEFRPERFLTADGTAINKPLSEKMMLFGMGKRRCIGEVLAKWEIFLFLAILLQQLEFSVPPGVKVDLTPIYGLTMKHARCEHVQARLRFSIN
Briefly: Clinically relevant inducers of human liver microsomal P450 enzymes, isoform CYP1A2. It is filed as ADME. Particulars: microsomes. A general note: Microsomes from liver hold many membrane-bound enzymes, among them those of drug oxidation.

A further series addresses Sulfotransferase 1A1 (Homo sapiens, UniProt P50225). Briefly: Major substrate of human cytosolic sulfotransferase SULT1A1. It is filed as ADME.
The target in another series is Sulfotransferase 1A2 (Homo sapiens, UniProt P50226). Briefly: Major substrate of human cytosolic sulfotransferase SULT1A2. It is filed as ADME.
The next series deals with T6, Sulfotransferase 4A1 (Homo sapiens, UniProt Q9BR01).
T6 sequence (Q9BR01 whole entry): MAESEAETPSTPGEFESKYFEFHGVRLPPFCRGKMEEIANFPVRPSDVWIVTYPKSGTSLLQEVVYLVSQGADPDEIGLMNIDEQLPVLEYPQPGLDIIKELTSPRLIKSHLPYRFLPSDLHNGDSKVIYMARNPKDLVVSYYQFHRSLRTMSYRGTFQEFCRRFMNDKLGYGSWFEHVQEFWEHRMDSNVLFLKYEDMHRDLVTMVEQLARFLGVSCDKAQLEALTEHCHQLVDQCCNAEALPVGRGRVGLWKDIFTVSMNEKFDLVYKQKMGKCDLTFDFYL
Briefly: Major substrate of human cytosolic sulfotransferase SULT4A1_v1. The format is ADME.

Series [6] addresses Glutathione S-transferase A3 (Homo sapiens, UniProt Q16772). Briefly: Substrates for human cytosolic glutathione transferase GSTA3. The format is ADME.
The target of series [7] is T7, Glutathione S-transferase A1 (Homo sapiens, UniProt P08263).
T7 sequence (P08263 whole entry): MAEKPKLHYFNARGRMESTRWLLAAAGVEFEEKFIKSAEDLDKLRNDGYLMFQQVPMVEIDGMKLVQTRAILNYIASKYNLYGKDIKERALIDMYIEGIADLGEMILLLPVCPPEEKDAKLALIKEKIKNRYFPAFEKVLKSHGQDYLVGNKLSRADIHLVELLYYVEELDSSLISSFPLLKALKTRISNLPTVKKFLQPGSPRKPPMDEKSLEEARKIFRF
Briefly: Substrates for human cytosolic glutathione transferase GSTA1. It is filed as ADME.

A further series has as its target T8, Cytochrome P450 2B6 (Homo sapiens, UniProt P20813).
T8 sequence (P20813 whole entry): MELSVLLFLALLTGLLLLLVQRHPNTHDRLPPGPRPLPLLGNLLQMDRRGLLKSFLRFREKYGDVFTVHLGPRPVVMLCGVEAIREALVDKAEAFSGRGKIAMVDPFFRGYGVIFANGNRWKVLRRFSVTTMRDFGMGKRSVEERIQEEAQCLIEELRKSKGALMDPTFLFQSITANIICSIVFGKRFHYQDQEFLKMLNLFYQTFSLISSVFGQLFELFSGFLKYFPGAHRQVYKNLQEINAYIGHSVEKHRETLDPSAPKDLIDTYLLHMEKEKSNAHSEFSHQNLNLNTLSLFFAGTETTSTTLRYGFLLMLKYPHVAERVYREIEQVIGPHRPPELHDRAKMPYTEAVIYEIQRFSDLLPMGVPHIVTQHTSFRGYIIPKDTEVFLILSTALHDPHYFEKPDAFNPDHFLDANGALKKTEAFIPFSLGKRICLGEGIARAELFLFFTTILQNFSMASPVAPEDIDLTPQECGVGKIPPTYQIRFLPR
Briefly: Clinically relevant inducers of human liver microsomal P450 enzymes, isoform CYP2B6. The conditions noted are these: microsomes. The format is ADME.

The target of another series is Cytochrome P450 2C9 (Homo sapiens, UniProt P11712). Briefly: Clinically relevant substrates of human liver microsomal P450 enzymes, isoform CYP2C9. It is filed as ADME. The conditions noted are these: microsomes.
Series [8] addresses T2, Nuclear receptor subfamily 1 group I member 3. Briefly: (§1) Constitutive androstane receptor indirect activator. It is filed as ADME.
For series [9], the target named is T3, Nuclear receptor subfamily 1 group I member 3. Described as §1. The format is ADME.
A further series has as its target Cytochrome P450 2C19 (Homo sapiens, UniProt P33261). Briefly: Clinically relevant substrates of human liver microsomal P450 enzymes, isoform CYP2C19. The format is ADME. Particulars: microsomes.
The target of series [10] is T9, Microsomal glutathione S-transferase 1 (Homo sapiens, UniProt P10620).
T9 sequence (P10620 whole entry): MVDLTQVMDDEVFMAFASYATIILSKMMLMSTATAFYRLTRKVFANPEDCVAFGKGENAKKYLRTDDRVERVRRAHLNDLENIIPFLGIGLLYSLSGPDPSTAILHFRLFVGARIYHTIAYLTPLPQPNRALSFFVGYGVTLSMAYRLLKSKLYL
Briefly: Substrates for human microsomal glutathione transferase MGST1. It is filed as ADME.

Series [11] has as its target T10, Glutathione S-transferase A2 (Homo sapiens, UniProt P09210).
T10 sequence (P09210 whole entry): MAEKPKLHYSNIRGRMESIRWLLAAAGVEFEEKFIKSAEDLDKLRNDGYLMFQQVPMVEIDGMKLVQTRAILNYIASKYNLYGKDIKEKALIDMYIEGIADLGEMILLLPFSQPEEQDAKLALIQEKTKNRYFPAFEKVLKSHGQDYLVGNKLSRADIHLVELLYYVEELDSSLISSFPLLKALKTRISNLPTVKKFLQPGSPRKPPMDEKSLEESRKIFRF
Briefly: Substrates for human cytosolic glutathione transferase GSTA2. It is filed as ADME.

The target of series [12] is T11, Glutathione S-transferase kappa 1 (Homo sapiens, UniProt Q9Y2Q3).
T11 sequence (Q9Y2Q3 whole entry): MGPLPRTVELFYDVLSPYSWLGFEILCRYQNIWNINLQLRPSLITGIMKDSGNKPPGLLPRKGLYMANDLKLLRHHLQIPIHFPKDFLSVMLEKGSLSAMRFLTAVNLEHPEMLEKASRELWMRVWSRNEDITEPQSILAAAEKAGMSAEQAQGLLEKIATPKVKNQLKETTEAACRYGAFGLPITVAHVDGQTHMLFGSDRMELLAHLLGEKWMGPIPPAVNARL
Briefly: Substrates for human mitochondrial glutathione transferase GSTK1. The format is ADME.

Series [13] deals with Glutathione S-transferase theta-2 (Homo sapiens, UniProt P0CG29). Briefly: Substrates for human cytosolic glutathione transferase GSTT2. The format is ADME.
Series [14] concerns the target T4, Aryl hydrocarbon receptor. Briefly: Aryl hydrocarbon receptor antagonist (species not specified).

Sequence of Glutathione S-transferase A3 (Q16772 whole entry): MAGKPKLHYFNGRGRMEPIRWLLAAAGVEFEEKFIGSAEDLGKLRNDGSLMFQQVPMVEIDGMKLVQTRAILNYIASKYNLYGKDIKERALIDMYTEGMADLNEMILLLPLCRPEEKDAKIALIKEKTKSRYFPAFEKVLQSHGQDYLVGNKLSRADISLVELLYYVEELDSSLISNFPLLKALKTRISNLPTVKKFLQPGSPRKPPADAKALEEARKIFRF
Sequence of Glutathione S-transferase theta-2 (P0CG29 whole entry): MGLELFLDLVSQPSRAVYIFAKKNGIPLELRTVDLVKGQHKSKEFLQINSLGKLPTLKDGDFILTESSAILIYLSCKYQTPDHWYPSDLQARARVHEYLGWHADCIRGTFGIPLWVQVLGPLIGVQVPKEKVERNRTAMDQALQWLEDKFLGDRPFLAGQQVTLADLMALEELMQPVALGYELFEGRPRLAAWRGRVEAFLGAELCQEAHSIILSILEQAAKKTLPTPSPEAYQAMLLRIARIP
Sequence of Cytochrome P450 2C19 (P33261 whole entry, canonical isoform): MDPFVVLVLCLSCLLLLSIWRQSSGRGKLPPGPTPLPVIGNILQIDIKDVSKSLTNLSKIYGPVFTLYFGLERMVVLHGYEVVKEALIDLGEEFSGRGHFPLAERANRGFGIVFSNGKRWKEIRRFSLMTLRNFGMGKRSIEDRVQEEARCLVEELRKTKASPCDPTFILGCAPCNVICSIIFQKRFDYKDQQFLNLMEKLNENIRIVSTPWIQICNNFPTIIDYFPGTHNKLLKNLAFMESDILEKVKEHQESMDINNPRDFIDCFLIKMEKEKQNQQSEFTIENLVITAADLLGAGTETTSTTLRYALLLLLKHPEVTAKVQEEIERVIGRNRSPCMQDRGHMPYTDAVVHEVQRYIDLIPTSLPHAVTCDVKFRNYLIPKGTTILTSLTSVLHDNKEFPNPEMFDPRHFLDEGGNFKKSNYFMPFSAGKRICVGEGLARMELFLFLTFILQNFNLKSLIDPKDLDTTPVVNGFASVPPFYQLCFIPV
Sequence of Glutathione S-transferase Mu 3 (P21266 whole entry): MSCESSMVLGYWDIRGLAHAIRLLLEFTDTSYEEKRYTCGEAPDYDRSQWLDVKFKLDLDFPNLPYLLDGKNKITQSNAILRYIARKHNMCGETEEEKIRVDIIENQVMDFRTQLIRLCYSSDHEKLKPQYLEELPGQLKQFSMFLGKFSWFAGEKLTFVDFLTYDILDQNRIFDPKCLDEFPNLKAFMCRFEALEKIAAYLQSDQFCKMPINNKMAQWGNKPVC
Sequence of Sulfotransferase 1A1 (P50225 whole entry): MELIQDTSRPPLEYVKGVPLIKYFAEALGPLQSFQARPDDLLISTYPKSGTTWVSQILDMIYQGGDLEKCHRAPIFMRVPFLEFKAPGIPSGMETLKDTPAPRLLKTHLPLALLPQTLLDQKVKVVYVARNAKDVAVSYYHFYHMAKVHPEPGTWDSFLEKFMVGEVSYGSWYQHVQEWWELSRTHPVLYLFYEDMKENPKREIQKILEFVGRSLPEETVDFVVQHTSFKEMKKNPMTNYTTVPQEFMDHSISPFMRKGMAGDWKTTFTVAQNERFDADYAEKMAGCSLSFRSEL
Sequence of Sulfotransferase 1A2 (P50226 whole entry): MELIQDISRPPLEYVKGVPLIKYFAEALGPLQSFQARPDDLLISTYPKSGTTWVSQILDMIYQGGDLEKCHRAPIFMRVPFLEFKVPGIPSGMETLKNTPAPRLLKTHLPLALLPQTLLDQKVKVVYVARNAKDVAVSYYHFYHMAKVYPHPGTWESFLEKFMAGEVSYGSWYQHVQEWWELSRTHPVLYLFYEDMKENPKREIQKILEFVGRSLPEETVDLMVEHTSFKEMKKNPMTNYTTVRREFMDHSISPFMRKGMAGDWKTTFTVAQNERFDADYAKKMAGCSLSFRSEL
Sequence of Cytochrome P450 2C9 (P11712 whole entry, canonical isoform): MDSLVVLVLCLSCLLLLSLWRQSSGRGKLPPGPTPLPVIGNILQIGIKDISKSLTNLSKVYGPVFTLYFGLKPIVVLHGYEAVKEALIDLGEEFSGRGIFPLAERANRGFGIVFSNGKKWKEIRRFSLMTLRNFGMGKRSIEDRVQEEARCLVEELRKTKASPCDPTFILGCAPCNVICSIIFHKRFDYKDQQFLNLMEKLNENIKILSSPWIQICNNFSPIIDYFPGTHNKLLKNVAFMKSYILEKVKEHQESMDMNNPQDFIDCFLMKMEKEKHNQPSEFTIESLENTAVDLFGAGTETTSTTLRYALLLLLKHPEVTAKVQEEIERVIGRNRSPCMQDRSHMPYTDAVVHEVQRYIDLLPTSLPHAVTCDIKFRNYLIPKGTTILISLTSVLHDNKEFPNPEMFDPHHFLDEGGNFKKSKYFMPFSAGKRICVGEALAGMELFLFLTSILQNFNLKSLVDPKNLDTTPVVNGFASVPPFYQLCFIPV

For `O=NN(CCCl)C(=O)NCCCl` [CARMUSTINE], the Activity result in series [1] and in series [2] was “Substrate” throughout.
As to `Cc1cccc(CN2CCN(C(c3ccccc3)c3ccc(Cl)cc3)CC2)c1` (stereo not given) [MECLIZINE], the Activity entry is on record as “inverse agonist” in series [3] and “agonist” in series [4].
As to `Clc1cc2c(cc1Cl)Oc1cc(Cl)c(Cl)cc1O2` [2,3,7,8-TETRACHLORODIBENZO-P-DIOXIN], the results for the Activity result (in series [5]; on Cytochrome P450 1A2) were “agonist” and “Inducer”, respectively.
As for `Oc1ccc2ccccc2c1` [BETANAPHTHOL], the Activity entry on Sulfotransferase 1A1, at Sulfotransferase 1A2 and on Sulfotransferase 4A1 was “Substrate” in each case.
With `C[C@]12CCC(=O)CC1=CC[C@@H]1[C@@H]2CC[C@]2(C)C(=O)CC[C@@H]12`, the Activity entry in series [6] and in series [7] was “Substrate” each time.
`O=C1NC(=O)C(c2ccccc2)(c2ccccc2)N1` [PHENYTOIN]: the Activity result is listed as “Inducer” on Cytochrome P450 2B6, “Substrate” on Cytochrome P450 2C9, “indirect activator” in [8] and “indirect activator” in [9].
For `COc1ccc2[nH]c([S+]([O-])Cc3ncc(C)c(OC)c3C)nc2c1` (stereo not given) [OMEPRAZOLE], the Activity result in [5] is reported as “agonist”; on Cytochrome P450 2C19, “Substrate”; at Cytochrome P450 1A2, “Inducer”.
For `CC(C)(OO)c1ccccc1` [CUMENE HYDROPEROXIDE], the Activity entry in series [10], in series [11], in series [12] and in [13] was “Substrate” in each case.
As for `O=S(=O)(O)Cc1ccc2ccccc2c1` [MENAPHTHYL SULFONATE], in series [13], the Activity result was “Substrate”.
In the case of `COc1ccc2[nH]c(SCc3ncc(C)c(OC)c3C)nc2c1` [UFIPRAZOLE], in [14], the Activity result is given as “antagonist”.
For the compound `Cc1ccccc1/N=N/c1ccc(NC(=O)c2ccnn2C)c(C)c1`, the Activity result in series [14] is listed as “antagonist”.
Consider `OC1c2c(cc3ccc4cccc5c6ccccc6c2c3c45)C2OC2C1O` (stereo not given) [DIBENZO[A,L]PYRENE DIOL EPOXIDE], for which the Activity entry in series [6], in series [7] and in series [11] was “Substrate” each time.
With `CN(C)CCCN1c2ccccc2Sc2ccc(Cl)cc21` [CHLORPROMAZINE], the results for the Activity result in [3] and in series [4] were “inverse agonist” and “agonist”, respectively.
